Measurements published in US7678557B2, “Methods for the accumulation and retention of immune-enhancing, bacterial-derived ribonucleotides (ORN) in bacteria” (priority 1993, dated 2010).

Tested on: L. monocytogenes
Assay: Disk diffusion assay of antibiotic susceptibility before and after 6 serial washes in PBS (Example 9)
Assay type: cell-based
Details: disk content per antimicrobial, average of 6 experiments (SD)
From the text: The disk diffusion assay was used to determine the susceptibility of vegetative forms of L. monocytogenes, before and after 6 serial 20-min washes in PBS. (See Bauer, A, Kirby, W, Sherris, J, Turck, M, 1966 Antibiotic Susceptibility Testing by a Standardize Single Disk Method, Amer J Clin Path 36:41-44).
Data are averages of 6 experiments. SD is in parentheses.

[1] = Before Washing, vegetative L. monocytogenes
[2] = After 6 Washes (20 min each in PBS), L. monocytogenes

Row | Compound | Diameter of Zone of Inhibition [1] | Diameter of Zone of Inhibition [2]
1 | NC[C@H]1O[C@H](O[C@H]2[C@H](O)[C@@H](O[C@H]3O[C@H](CO)[C@@H](O)[C@H](N)[C@H]3O)[C@H](N)C[C@@H]2N)[C@H](O)[C@@H](O)[C@@H]1O [Kanamycin] | 11 (2.66) mm | 
2 | Polymixin B | 0 mm | 
3 | CN[C@H](CC(C)C)C(=O)N[C@H]1C(=O)N[C@@H](CC(N)=O)C(=O)N[C@H]2C(=O)N[C@H]3C(=O)N[C@H](C(=O)N[C@H](C(=O)O)c4cc(O)cc(O)c4-c4cc3ccc4O)[C@H](O)c3ccc(c(Cl)c3)Oc3cc2cc(c3O[C@@H]2O[C@H](CO)[C@@H](O)[C@H](O)[C@H]2O[C@H]2C[C@](C)(N)[C@H](O)[C@H](C)O2)Oc2ccc(cc2Cl)[C@H]1O [Vancomycin] | 25 (3.7) mm | 30 (4.2) mm
4 | CC1(C)S[C@@H]2[C@H](NC(=O)[C@H](N)c3ccccc3)C(=O)N2[C@H]1C(=O)O [Ampicillin] | 32 mm (3.8) | 30 mm (3.6)
5 | CN(C)[C@@H]1C(O)=C(C(N)=O)C(=O)[C@@]2(O)C(O)=C3C(=O)c4c(O)cccc4[C@@](C)(O)[C@H]3C[C@@H]12 [Tetracycline] | 40 (5.0) mm | 45 (6.3) mm
